# Like-named read-outs stand apart in the source and are kept apart here.
# Legend:
# [1] = system: G. lamblia WB trophozoites; test: Trophozoite growth inhibition, ATP content (ATPlite) assay; type: cell-based; settings: Giardia duodenalis, 72 h, read-out: Mean [IC50 ± SE(IC50)] G. lamblia WB
# Protocol: (§1) Antigiardia assays followed by enzyme inhibition determination facilitated the selection of compounds for permeation and stability studies by in vitro methods, prior to advancing to in vivo studies. Compound potency was evaluated first by measuring G. lamblia trophozoite growth as a function of the compound concentration and calculating the IC50 values. Potency in Entamoeba histolytica trophozoites was also determined because of the early report that fumagillin cured amebiasis ([19]). The intent was to test whether the compounds would be suitable to treat gastrointestinal amebiasis rather than the invasive form of the disease, given that the designed strategy was based on reducing compound permeation across the epithelial cell barrier. […] Trophozoite growth was determined by monitoring the ATP cell content using a high-throughput homogeneous assay developed previously for G. lamblia ([57]). The ATP content serves as a marker of cell integrity since ATP degrades rapidly when cells die and the luminescence signal generated by luciferase requires ATP. The same assay was also adopted in 96-well plates for E. histolytica trophozoite growth measurement, as described in Materials and Methods. A similar E. histolytica trophozoite ATP content assay was described previously ([58]). Fumagillin, TNP-470, and a standard-of-care drug (metronidazole) served as positive controls, and cells without the drug (in the presence of 0.5% dimethyl sulfoxide [DMSO]) served as the negative control.
# (§2) Trophozoites of G. lamblia isolates WB and GS were grown anaerobically in borosilicate glass screw-cap culture tubes (Fisher Scientific) at pH 7.0 in Keister’s modified TYI-S-33 medium (ATCC). The medium was supplemented with 10% heat-inactivated bovine serum (Sigma-Aldrich) and 0.05% bovine bile (Sigma-Aldrich). To attain low-oxygen-tension conditions, the tubes were filled to 85% to 90% of their total volume capacity and incubated without shaking at 37°C. Subcultures (2 × 10^5 trophozoites per tube) were made three times a week. Detachment of trophozoites for inoculation was achieved by chilling the cultures on ice for 20 min. Culturing and detachment of metronidazole-resistant G. lamblia assemblage A 713M3 and assemblage B 1279-M1 trophozoites followed the same protocol, except that the growth medium was supplemented with metronidazole, with the concentration gradually being increased to 10 μM.
# (§3) The growth inhibition assays were performed in duplicate, once for each compound, for all compounds except fumagillin, which served as a positive control and whose inhibitory ability was measured multiple times as new sets of compounds were tested. All dry compounds except for fumagillin were dissolved in dimethyl sulfoxide (DMSO; Sigma) at a stock concentration of 10 mM and then diluted 1:100 in growth medium to a final compound concentration of 100 μM; fumagillin was diluted to 20 μM. Compound solution aliquots (100 μl) were prepared by 3-fold serial dilutions in growth medium containing 0.5% DMSO and distributed into 96-well assay plates. This was followed by the addition of 10 μl G. lamblia or E. histolytica culture containing 10,000 trophozoites. Fumagillin served as a positive control, and the medium-diluted DMSO alone served as a negative control. The assay plates were placed in a BD GasPak EZ container system (BD Diagnostics) to create an anaerobic growth environment. The sealed containers were incubated at 37°C for 72 h. Following incubation, 70 μl/well of the ATPlite reagent (PerkinElmer) was added to the assay plates for one-step lysis and ATP level detection. The luminescent signals of the assay plates were measured on an EnSpire 2300 plate reader (PerkinElmer). Concentration-response titration points for each compound were fitted to a 4-parameter logistic nonlinear regression model using the KaleidaGraph tool, yielding the IC50 value and standard error (SE).
# [2] = system: metronidazole-resistant G. lamblia 1279-M1; test: Trophozoite viability MLC determination; type: cell-based, Giardia lamblia; settings: metronidazole-resistant strain; 3 days treatment, 3 days proliferation
# Protocol: (§4) The inhibition of metabolism enables the organism to resume proliferation once treatment is completed. To discriminate between the lethality of the promising compounds and the induction of metabolic inactivity by the promising compounds, the minimum lethal concentration (MLC) values were determined by treating the trophozoites with the test compounds for 3 days and transferring the resulting cultures to medium lacking the compounds for 3 days of proliferation. This assay was described previously for G. lamblia ([18]) and was adapted to E. histolytica in the current study.
# as §2
# (§5) Compounds were prepared by 2-fold serial dilutions in growth medium containing 0.5% DMSO (diluted from a starting concentration of 1 μM to 12 concentrations for all compounds except metronidazole, fumagillol, and TNP-470, which were diluted from 100 μM), and 100 μl/well was transferred in duplicate to the 96-well culture plate. Ten microliters of G. lamblia trophozoites was plated at a density of 10,000 cells/well. The plates were incubated under anaerobic condition in a BD GasPak EZ container system (BD Diagnostics) at 37°C for 72 h and surveyed visually under a microscope to check trophozoite survival, mobility, and attachment. […] The tubes were incubated under anaerobic condition for 3 days at 37°C and checked under a microscope. The MLC value was the concentration in the tube with the lowest compound concentration without any live organism.
# [3] = system: metronidazole-resistant G. lamblia 713M3; test: Trophozoite viability MLC determination; type: cell-based, Giardia lamblia; settings: metronidazole-resistant strain; 3 days treatment, 3 days proliferation
# Protocol: as §4, §2, §5
# [4] = system: G. lamblia WB trophozoites; test: Trophozoite viability MLC determination; type: cell-based, Giardia lamblia; settings: 3 days treatment, 3 days proliferation without drug
# Protocol: as §4, §2, §5
# [5] = system: E. histolytica HM1:IMSS trophozoites; test: Trophozoite growth inhibition, ATP content (ATPlite) assay; type: cell-based; settings: Entamoeba histolytica, 72 h, read-out: Mean [IC50 ± SE(IC50)] E. histolytica HM1: IMSS
# Protocol: as §1
# E. histolytica strain HM1:IMSS trophozoites were grown at 37°C in TYI-S-33 medium supplemented with penicillin (100 U/ml) and streptomycin sulfate (100 μg/ml) ([65]). Trophozoites were grown anaerobically in borosilicate tubes or T25 flasks, and subcultures were made 1 to 2 times a week. Trophozoites were detached for inoculation by chilling the cultures on ice for 20 min.
# as §3, with “The sealed containers were incubated at 37°C for 72 h.” left out
# [6] = trophozoite growth, ATP content
Compound,"IC50 [1, 6]",MLC G. lamblia 1279-M1 [2],MLC G. lamblia 713M3 [3],MLC G. lamblia WB [4],"IC50 [5, 6]",IC50 [5],IC50 [1]
COC1C(OC(=O)NC(=O)CN2CCOCC2)CCC2(CO2)C1C1(C)OC1CC=C(C)C (stereo not drawn) [Compound 3],1.6 ± 0.1 nM,0.98 nM,3.9 nM,0.98 nM,4 ± 0.1 nM,–,–
COC1C(OC(=O)NC(=O)CN2CCC(O)CC2)CCC2(CO2)C1C1(C)OC1CC=C(C)C (stereo not drawn) [Compound 4],6.8 ± 0.3 nM,7.8 nM,3.9 nM,3.9 nM,36 ± 4.2 nM,–,–
"CO[C@@H]1[C@H](OC(=O)Nc2ccc(C(=O)O)cc2)CC[C@]2(CO2)[C@H]1[C@@]1(C)O[C@@H]1CC=C(C)C [Compound 9, 4-(((((3R,4S,5S,6R)-5-methoxy-4-((2R,3R)-2-methyl-3-(3-methylbut-2-en-1-yl)oxiran-2-yl)-1-oxaspiro[2.5]octan-6-yl)oxy)carbonyl)amino)benzoic acid]",6.3 ± 0.7 nM,7.8 nM,7.8 nM,3.9 nM,–,6.7 ± 0.5 nM,–
CCOC(=O)Cc1ccc(NC(=O)OC2CCC3(CO3)C(C3(C)OC3CC=C(C)C)C2OC)cc1 (stereo not drawn) [Compound 11],7.4 ± 1.3 nM,–,–,98 nM,43 ± 3.4 nM,–,–
COC1C(OC(=O)N2CCC(O)CC2)CCC2(CO2)C1C1(C)OC1CC=C(C)C (stereo not drawn) [Compound 16],2.6 ± 0.2 nM,7.8 nM,1.95 nM,1.95 nM,2.9 ± 0.2 nM,–,–
"CO[C@@H]1[C@H](OC(=O)/C=C/C=C/C=C/C=C/C(=O)O)CC[C@]2(CO2)[C@H]1[C@@]1(C)O[C@@H]1CC=C(C)C [Fumagillin, reference compound]",–,125 nM,250 nM,125 nM,–,47.9 ± 4.8 nM,9.5 ± 2.2 nM
"Cc1ncc([N+](=O)[O-])n1CCO [Metronidazole, reference compound]",5570 ± 877 nM,"100,000 nM","100,000 nM","7,700 nM",318 ± 16 nM,–,–

# Reference: paper PMC7508583, “Discovery and Preclinical Development of Antigiardiasis Fumagillol Derivatives” (Antimicrobial Agents and Chemotherapy, 2020)
